Measurements reported in ChEMBL document CHEMBL5030555.
The source made the active and inactive calls. The rule behind the calls is not given here.

Columns and labels:
[1] = tested on: Vero; experiment: Inhibition of Escherichia coli Stx2a using african green monkey Vero cell assessed as inhibition of depurination incubated pretreated cells for 1 hr measured after 2 hrs of toxin addition; assay type: cell-based; settings: time 3.0 hrs
[2] = tested on: Vero; experiment: Protection against Escherichia coli Stx2a-induce d african green monkey Vero cell death assessed as protection of cell viability incubated pretreated cells for 1 hr measured after 2 hrs of toxin addition; assay type: functional, cell-based; settings: Chlorocebus sabaeus, time 3.0 hrs

SMILES | inhibition [1] | Activity [2]
Cc1cccc(C)c1-c1ccc(C(=O)O)s1 | inactive | inactive
Cc1cc(C)c(-c2ccc(C(=O)O)s2)c(C)c1 | inactive | inactive
Cc1ccccc1-c1ccc(C(=O)O)s1 | inactive | inactive
CCc1ccccc1-c1ccc(C(=O)O)s1 | inactive | inactive
